# Laboratory results from article PMC7358525, “Characterization of PF-6142, a Novel, Non-Catecholamine Dopamine Receptor D1 Agonist, in Murine and Nonhuman Primate Models of Dopaminergic Activation” (Frontiers in Pharmacology, 2020).
# Key:
# EEG oscillation power = experiment: Rat quantitative electroencephalography, freely moving; assay type: in vivo; conditions: first 4 h
# Text: Model 4ET telemetry device components (Data Sciences International, St Paul, MN, USA) were bilaterally placed in subcutaneous pockets on the dorsal flank of adult male Sprague-Dawley rats (200–400 grams). Two pairs of leads were implanted superficially to burr holes drilled over the frontal cortex (stainless steel screws, Plastics One, Roanoke, VA at coordinates: A-P = +1.5 mm, M-L = 1.5 mm) and parietal cortex (coordinates: A-P = −3.7 mm, M-L = −2.2 mm), and the cerebellum bilaterally to be used as ground and reference for electroencephalographic (EEG) recordings. A stainless-steel wire (Plastics One, Roanoke, VA) was implanted into the neck muscle to monitor electromyogram (EMG). All recordings were performed inside the home cages of animals using RPC-2 telemetry receivers (Data Sciences International, St. Paul, MN) at a sampling rate of 500 Hz for data acquisition. Baseline data, while on vehicle, were obtained for 24 h prior to compound administration. PF-6142 (1.0 or 5.6 mg/kg, s.c.) was administered acutely following the baseline day.
# Raw EEG traces were analyzed using custom scripts in MATLAB (The Mathworks, Natick, MA, version 7.8 (R2009a)) to evaluate spectral changes between treatment groups. Raw EEG data were read into the MATLAB software, segmented to match that of the polysomnography (PSG) data (see below) and fast Fourier transforms (FFTs) were performed. Only data collected on the parietal lead were the subject of statistical analyses. PSG analysis was applied to all EEG/EMG data and utilized an in-house algorithm developed in LabView (National Instruments, Austin TX) as previously described ([Harvey et al., 2013]).
# Relative power data in each band aggregated over 2 h-long time bins, while on drug, were normalized to baseline levels in corresponding time bins relative to dosing. For statistical analysis the R software was used. The effects of two within factors, dose and time, on cumulative time spent in three stages, awake, REM, and NREM sleep were assessed using generalized linear mixed model. The model specification explicitly accounted for a crossover design with repeated measures by introducing auxiliary factors, day, treatment sequence, and day by time product. To account for correlations within subjects, we employed a first order autoregressive scheme, which assumes that correlations decay exponentially with the lag between the measurements. The model was fitted using the method of restricted maximum likelihood. Significant findings were followed by least significant difference tests for pairwise differences across doses and across doses at fixed times for treatment and treatment by time factors, respectively. Tukey-Kramer procedure was used to adjust for multiple hypothesis testing. For all statistical tests, p < 0.05 was considered significant. The same fixed factors and type of statistical model were used to explain cumulative power within EEG power bands; the power was log transformed before the analysis.
# [1] = system: conditioned avoidance responding; experiment: Rat conditioned avoidance response (CAR); assay type: in vivo
# Procedure: The CAR assay was performed under similar conditions previously described ([Marquis et al., 2011]) at WuXiAppTec Inc. (Delin Rd. #90, Waigaoquiao Free Trade Zone, Shanghai 200131, China). For this study, adult male Fisher-344 rats were trained and tested in a two-way active avoidance apparatus with MED-PC software (MED Associates, St. Albans, VT, USA).
# Briefly, subjects were handled and acclimated to the shuttle boxes for 2 d prior to training sessions. During training sessions, subjects were trained to avoid an electric footshock by moving to the adjacent, non-stimulus side of the shuttle box upon presentation of tone + light stimuli which preceded the presentation of the footshock (0.6 mA, 10 s duration) by 10 s. For this assay an avoidance was defined as moving to the adjacent compartment during the tone+light presentation that preceded the shock, an escape was defined as moving to the adjacent compartment upon presentation of the shock, and an escape failure was defined as a lack of relocation to the adjacent compartment throughout the presentation of the shock. Subjects received 30 trials of training per day for 5 d. Subjects with ≥ 80% avoidance responses on two consecutive days with no escape failures, were considered qualified for testing, and were randomized across treatment groups (n=8–9 per treatment group). […] Avoidance responding was calculated as % of the number of total trials in which an avoidance occurred. Data were calculated for each animal and compared across treatment groups using one-way ANOVA with Dunnett’s post-test versus the vehicle + vehicle treated group.
# [2] = significant only at 5.6 mg/kg s.c.
smiles,measurement,setting,value
Cc1cc(Oc2nccc3occc23)ccc1-c1c(C)ncc2nccn12 [PF-6142],delta oscillation power vs vehicle,EEG oscillation power; 5.6 mg/kg s.c.,significant delta power decrease
same,"power in other studied frequency bands (theta, alpha)",EEG oscillation power; 1.0 and 5.6 mg/kg s.c.,not found to change significantly
same,beta oscillation power,EEG oscillation power; [2],significant increase
same,gamma oscillation power,EEG oscillation power; [2],significant increase
same,total power in the EEG signal,EEG oscillation power; [2],decreased significantly
same,% avoidance responses,[1]; PF-6142 1.78 mg/kg s.c. + risperidone 0.1 mg/kg s.c.,76.25%
same,% avoidance responses,[1]; PF-6142 1.78 mg/kg s.c. + risperidone 0.56 mg/kg s.c.,8.125%
same,% avoidance responding,"[1]; PF-6142 1.78 mg/kg s.c. alone, combination study (Figure 4D)",94.38%
same,mean % avoidance responses,[1]; PF-6142 alone 0.32 mg/kg s.c.,95.93%
same,mean % avoidance responses,"[1]; PF-6142 alone 1.78 mg/kg s.c., dose-range study",98.47%
same,mean % avoidance responses,[1]; PF-6142 alone 3.2 mg/kg s.c.,95.57%
same,mean % avoidance responses,[1]; PF-6142 alone 5.6 mg/kg s.c.,95.75%
